Source: PMC6001238, “Iterative Chemical Engineering of Vancomycin Leads to Novel Vancomycin Analogs With a High in Vitro Therapeutic Index” (Frontiers in Microbiology, 2018)
Values after ≈ are worked out from the molar mass of the structure shown. Where two headings read alike, the source gives them in different places.

Legend:
E. faecalis VRE 6 = assay: MIC, broth microdilution, vancomycin-resistant E. faecalis VRE 6 (VanA); type: cell-based, Enterococcus faecalis
Method in brief: (§1)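 Controls (ultrapure water; broth not inoculated) were included throughout CLSI-compliant broth microdilution. One condition supplemented analogue or comparator with 10 μM vancomycin, final level.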

MRSA = assay: Minimum bactericidal concentration against MRSA; type: cell-based, Staphylococcus aureus
Procedure: Plates were incubated overnight at 37°C and colony growth was inspected.

MRSA KS6 = assay: MIC, broth microdilution, MRSA KS6; type: cell-based, Staphylococcus aureus
Method in brief: as §1

[1] = tested on: human cervix carcinoma (HeLa) cells; assay: Cytostatic activity, HeLa cell proliferation; type: cell-based; details: mean ± SD of three experiments; highest concentration tested 250 µM; 4 days; read-out: Toxicity (IC50) HeLa
Method in brief: (§2)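 Coulter counter cell counts after 37°C culture with compound; IC50 = concentration giving 50% growth inhibition vs negative control. Incubation: L1210 2 d, CEM 3 d, HeLa 4 d. Suspension density before mixing with an equal volume of dilution: 300,000–500,000 cells/mL.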

VE 157 (VanB) = assay: MIC, VanB-type VRE strain VE 157; type: cell-based, Enterococcus; details: VE 157, VanB; read-out: MIC
Procedure: (§3) The minimum inhibitory concentration (MIC) was determined using the broth microdilution method according to the antimicrobial susceptibility testing standards of the clinical and laboratory standards institute ([Clinical and Laboratory Standards Institute [CLSI], 2012]). Ultrapure water and non-inoculated broth were used as controls. In one case, a final concentration of 10 μM vancomycin was included with the vancomycin analog or control antibiotic.

[2] = tested on: human T-lymphocyte (CEM) cells; assay: Cytostatic activity, CEM cell proliferation; type: cell-based; details: mean ± SD of three experiments; highest concentration tested 250 µM; 3 days; read-out: Toxicity (IC50) CEM
Method in brief: as §2

[3] = tested on: L1210, CEM and HeLa cell lines; assay: Cytostatic activity, average or summary over L1210, CEM and HeLa; type: cell-based
Method in brief: as §2

VE 149 (VanB) = assay: MIC, VanB-type VRE strain VE 149; type: cell-based, Enterococcus; details: VE 149, VanB; read-out: MIC
Procedure: as §3

VE 82 (VanC1) = assay: MIC, VanC1-type VRE strain VE 82; type: cell-based, Enterococcus gallinarum; details: VE 82, VanC1; read-out: MIC
Procedure: as §3

VE 150 (VanB) = assay: MIC, VanB-type VRE strain VE 150; type: cell-based, Enterococcus; details: VE 150, VanB; read-out: MIC
Procedure: as §3

[4] = tested on: Clostridium difficile ATJ ribotype 014/20; assay: MIC, plate drop assay, C. difficile ATJ ribotype 014/20; type: cell-based; details: C. difficile ATJ ribotype 014/20
Method in brief: (§4)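 Lawns of each strain were made in soft BHI agar (0.4%) supplemented with CaCl2⋅2H2O and MgCl2⋅6H2O. Twofold compound dilutions (10 μL) were spotted, air-dried and incubated overnight at 37°C anaerobically; MIC read as cleared spots, in triplicate with water as negative control.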

MRSA KS89 = assay: MIC, broth microdilution, MRSA KS89; type: cell-based, Staphylococcus aureus
Method in brief: as §1

E. faecalis VRE 53 = assay: MIC, broth microdilution, vancomycin-resistant E. faecalis VRE 53 (VanA); type: cell-based, Enterococcus faecalis
Method in brief: as §1

E. faecalis VSE 1 = assay: MIC, broth microdilution, vancomycin-sensitive E. faecalis (VSE 1); type: cell-based, Enterococcus faecalis
Method in brief: as §1

S. aureus VISA/HIP5827 = assay: MIC, broth microdilution, vancomycin-intermediate S. aureus VISA HIP5827; type: cell-based, Staphylococcus aureus
Method in brief: as §1

33 clinical VRE isolates = assay: MIC against a set of 33 clinical VRE isolates (range, MIC50, TI); type: cell-based, Enterococcus faecalis
Procedure: as §3

E. faecalis VRE 29 = assay: MIC, broth microdilution, vancomycin-resistant E. faecalis VRE 29 (VanA); type: cell-based, Enterococcus faecalis
Method in brief: as §1

MRSA KS2 = assay: MIC, broth microdilution, MRSA KS2; type: cell-based, Staphylococcus aureus
Method in brief: as §1

S. aureus VRSA = assay: MIC, broth microdilution, vancomycin-resistant S. aureus (VRSA); type: cell-based, Staphylococcus aureus
Method in brief: as §1

E. faecalis VRE 37 = assay: MIC, broth microdilution, vancomycin-resistant E. faecalis VRE 37 (VanA); type: cell-based, Enterococcus faecalis
Method in brief: as §1

[5] = tested on: S. aureus VSSA (ATCC 6538); assay: MIC, broth microdilution, vancomycin-sensitive S. aureus (VSSA/MSSA, ATCC 6538); type: cell-based, Staphylococcus aureus
Method in brief: as §1

VE 152 (VanB) = assay: MIC, VanB-type VRE strain VE 152; type: cell-based, Enterococcus; details: VE 152, VanB; read-out: MIC
Procedure: as §3

[6] = tested on: Murine leukemia (L1210) cells; assay: Cytostatic activity, L1210 cell proliferation; type: cell-based; details: mean ± SD of three experiments; highest concentration tested 250 µM; 2 days; read-out: Toxicity (IC50) L1210
Method in brief: as §2

[7] = tested on: Clostridium difficile AIU ribotype 027; assay: MIC, plate drop assay, C. difficile AIU ribotype 027; type: cell-based; details: C. difficile AIU ribotype 027
Method in brief: as §4

MRSA KS1 = assay: MIC, broth microdilution, MRSA KS1; type: cell-based, Staphylococcus aureus
Method in brief: as §1

VE 148 (VanB) = assay: MIC, VanB-type VRE strain VE 148; type: cell-based, Enterococcus; details: VE 148, VanB; read-out: MIC
Procedure: as §3

[8] = tested on: 24 clinical MRSA isolates; assay: MIC against a set of 24 clinical MRSA isolates (range, MIC50, TI); type: cell-based, Staphylococcus aureus
Procedure: as §3

CCCCc1ccc(NC(=O)CNC(=O)[C@H]2NC(=O)[C@H]3NC(=O)[C@H](NC(=O)[C@@H]4NC(=O)[C@H](CC(N)=O)NC(=O)[C@H](NC(=O)[C@@H](CC(C)C)NC)[C@H](O)c5ccc(c(Cl)c5)Oc5cc4cc(c5O[C@@H]4O[C@H](CO)[C@@H](O)[C@H](O)[C@H]4O[C@H]4C[C@](C)(N)[C@H](O)[C@H](C)O4)Oc4ccc(cc4Cl)[C@H]3O)c3ccc(O)c(c3)-c3c(O)cc(O)cc32)cc1 [Vanc-39]
MIC (E. faecalis VRE 6; Enterococcus faecalis VRE 6 (vancomycin-resistant), read-out: MIC): 3.13 µM (≈ 5.13 µg/mL)
MIC-fold improvement vs. vancomycin (E. faecalis VRE 6; VRE 6, ratio of MIC of vancomycin and MIC of analogue): 64
MBC relative to MIC (MRSA): MBC equaling their MIC values
MIC-fold improvement vs. vancomycin (MRSA KS6; MRSA KS6, ratio of MIC of vancomycin and MIC of analogue): 4
MIC (MRSA KS6; Staphylococcus aureus MRSA KS6, read-out: MIC): 0.20 µM (≈ 0.328 µg/mL)
IC50 [1]: > 250 µM
MIC (VE 157 (VanB)): 0.78 µM (≈ 1.28 µg/mL)
IC50 [2]: > 250 µM
IC50 ([3]; average IC50 used for TI in Table S5, >250 entered as 250, read-out: IC50): 250 µM
IC50 ([3]; average of L1210, CEM and HeLa, read-out: Toxicity (IC50) Average): > 250 µM
IC50 ([3]; summary over the three cell lines, read-out: IC50 (L1210, CEM, HeLa), depending on the cell line used): > 250 µM
MIC (VE 149 (VanB)): 0.78 µM (≈ 1.28 µg/mL)
MIC (VE 82 (VanC1)): 0.78 µM (≈ 1.28 µg/mL)
MIC (VE 150 (VanB)): 1.56 µM (≈ 2.55 µg/mL)
MIC-fold improvement vs. vancomycin [4]: 22
MIC-fold improvement vs. vancomycin (MRSA KS89; MRSA KS8, ratio of MIC of vancomycin and MIC of analogue): 4
MIC (MRSA KS89; Staphylococcus aureus MRSA KS8, read-out: MIC): 0.20 µM (≈ 0.328 µg/mL)
MIC (E. faecalis VRE 53; Enterococcus faecalis VRE 53 (vancomycin-resistant), read-out: MIC): 50 µM (≈ 81.9 µg/mL)
MIC-fold improvement vs. vancomycin (E. faecalis VRE 53; VRE 53, ratio of MIC of vancomycin and MIC of analogue): 8
MIC (E. faecalis VSE 1; Enterococcus faecalis VSE 1 (vancomycin-sensitive), read-out: MIC): 0.20 µM (≈ 0.328 µg/mL)
MIC-fold improvement vs. vancomycin (E. faecalis VSE 1; VSE 1, ratio of MIC of vancomycin and MIC of analogue): 8
MIC (S. aureus VISA/HIP5827; Staphylococcus aureus VISA/HIP5827, read-out: MIC): 0.39 µM (≈ 0.639 µg/mL)
MIC-fold improvement vs. vancomycin (S. aureus VISA/HIP5827; VISA/HIP5827, ratio of MIC of vancomycin and MIC of analogue): 16
MIC Range (33 clinical VRE isolates; 33 clinical VRE isolates): 0.78 to 12.5 µM
TI (IC50/MIC50) (33 clinical VRE isolates; in vitro therapeutic index, VRE): 80
MIC50 (33 clinical VRE isolates; median MIC, 33 clinical VRE isolates, read-out: MIC50): 3.13 µM (≈ 5.13 µg/mL)
MIC (E. faecalis VRE 29; Enterococcus faecalis VRE 29 (vancomycin-resistant), read-out: MIC): 6.25 µM (≈ 10.2 µg/mL)
MIC-fold improvement vs. vancomycin (E. faecalis VRE 29; VRE 29, ratio of MIC of vancomycin and MIC of analogue): 64
MIC-fold improvement vs. vancomycin (MRSA KS2; MRSA KS2, ratio of MIC of vancomycin and MIC of analogue): 4
MIC (MRSA KS2; Staphylococcus aureus MRSA KS2, read-out: MIC): 0.20 µM (≈ 0.328 µg/mL)
MIC (S. aureus VRSA; Staphylococcus aureus VRSA, read-out: MIC): 0.78 µM (≈ 1.28 µg/mL)
MIC-fold improvement vs. vancomycin (S. aureus VRSA; VRSA, ratio of MIC of vancomycin and MIC of analogue): 128
MIC (E. faecalis VRE 37; Enterococcus faecalis VRE 37 (vancomycin-resistant), read-out: MIC): 6.25 µM (≈ 10.2 µg/mL)
MIC-fold improvement vs. vancomycin (E. faecalis VRE 37; VRE 37, ratio of MIC of vancomycin and MIC of analogue): 64
MIC ([5]; Staphylococcus aureus VSSA, read-out: MIC): 0.05 µM (≈ 0.0819 µg/mL)
MIC-fold improvement vs. vancomycin ([5]; VSSA, ratio of MIC of vancomycin and MIC of analogue): 16
MIC (VE 152 (VanB)): 0.78 µM (≈ 1.28 µg/mL)
IC50 [6]: > 250 µM
MIC-fold improvement vs. vancomycin [7]: 14
MIC-fold improvement vs. vancomycin (MRSA KS1; MRSA KS1, ratio of MIC of vancomycin and MIC of analogue): 4
MIC (MRSA KS1; Staphylococcus aureus MRSA KS1, read-out: MIC): 0.20 µM (≈ 0.328 µg/mL)
MIC (VE 148 (VanB)): 3.13 µM (≈ 5.13 µg/mL)
TI (IC50/MIC50) ([8]; in vitro therapeutic index, MRSA): 641
MIC50 ([8]; median MIC, 24 clinical MRSA isolates, read-out: MIC50): 0.39 µM (≈ 0.639 µg/mL)
